Laboratory results reported in PubChem BioAssay (NCI).
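Step 1: Grow cells in 96-well plates. Step 2: Expose to compound for 48 hours at 5 concentrations. Step 3: Interpolate endpoints linearly; if unreached, use highest concentration. TGI marks complete inhibition of growth.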

Experiments:
Assay in all cases: NCI anticancer screen, dose series, 48 h
A498 renal = tested on: A498 renal
RXF 393 renal = tested on: RXF 393 renal
NCI-H23 lung = tested on: NCI-H23 lung
SK-MEL-5 melanoma = tested on: SK-MEL-5 melanoma
SF-539 CNS = tested on: SF-539 CNS
SK-MEL-2 melanoma = tested on: SK-MEL-2 melanoma
UACC-257 melanoma = tested on: UACC-257 melanoma
COLO 205 colon = tested on: COLO 205 colon
M14 melanoma = tested on: M14 melanoma
OVCAR-5 ovarian = tested on: OVCAR-5 ovarian
DU-145 prostate = tested on: DU-145 prostate
UO-31 renal = tested on: UO-31 renal
MCF7 breast = tested on: MCF7 breast
LOX IMVI melanoma = tested on: LOX IMVI melanoma

SMILES | TGI (A498 renal) [µM] | TGI (RXF 393 renal) [µM] | TGI (NCI-H23 lung) [µM] | TGI (SK-MEL-5 melanoma) [µM] | TGI (SF-539 CNS) [µM] | TGI (SK-MEL-2 melanoma) [µM] | TGI (UACC-257 melanoma) [µM] | TGI (COLO 205 colon) [µM] | TGI (M14 melanoma) [µM] | TGI (OVCAR-5 ovarian) [µM] | TGI (DU-145 prostate) [µM] | TGI (UO-31 renal) [µM] | TGI (MCF7 breast) [µM] | TGI (LOX IMVI melanoma) [µM]
CC1(C)C(c2ccccc2)=NN(O)c2ccccc21 | > 100 | > 100 | > 100 | > 100 | > 100 | > 100 | > 100 | > 100 | > 100 | > 100 |  |  |  | 
CCN(CC)CCNc1ccc2ncn3c4c(OC)ccc(OC)c4c(=O)c1c23 | > 100 | 10.3 | 75.5 | 31.4 | 44.1 |  | > 100 | 20.4 | 34.4 |  | 25.7 | > 100 | 17 | 
CNC(=O)CCNC(=O)CCC(=O)N(C)C | > 100 | > 100 | > 100 | > 100 | > 100 | > 100 |  | > 100 | > 100 | > 100 | > 100 | > 100 | > 100 | 
CC1=CCC2(C#N)CCC1C2O (centres undefined) | > 100 | > 100 |  | > 100 | > 100 | > 100 | > 100 | > 100 | > 100 | > 100 |  | > 100 |  | > 100
C=C(C)C#CC(O)(C(=O)OC1CCN(C)CC1)C(C)C (centres undefined) |  | > 100 | > 100 | > 100 | > 100 |  | > 100 | > 100 | > 100 | > 100 | > 100 | > 100 | > 100 | > 100
O=C(C/C(=N\NC(=O)C[n+]1ccccc1)C(=O)Nc1nc2ccc([N+](=O)[O-])cc2s1)CC(c1ccccc1)c1c(O)c2ccccc2oc1=O (centres undefined) | > 100 | > 100 | > 100 | > 100 | > 100 | > 100 | > 100 | > 100 | > 100 | > 100 |  | > 100 |  | 
C=C[C@@]1(C)CCC2(O)C(CCC3C2(C)CCC[C@@]3(C)COC(=O)CC(=O)OC)C1 (some centres undefined) |  | 61.5 | 37.4 | 32.1 | 36.1 |  | 36.5 |  | 32.7 | 57.8 |  | > 100 |  | 31.1
COc1ccc(-c2cnoc2-c2ccc(OC)c(OC)c2)cc1OC | 21.2 |  | 3.97 | 6.71 | 3.3 | 42.7 | > 100 | 3.86 | 5.39 | 36 |  | 41.6 |  | 5.22
O=C(CC(=O)C(=O)Nc1ccccc1)CC(c1ccccc1)c1c(O)c2ccccc2oc1=O (centres undefined) | > 100 | > 100 |  | > 100 | > 100 | > 100 |  | > 100 | > 100 | > 100 |  | > 100 |  | > 100
O=C1c2cccc3cc([N+](=O)[O-])cc(c23)C(=O)N1NC1=NCCN1 | > 100 | > 100 | > 100 | > 100 | > 100 | > 100 | > 100 | > 100 | > 100 | > 100 |  | > 100 |  | > 100
